Here are results for seven molecules from ChEMBL document CHEMBL3132773, “Synthesis and biological evaluation of novel 2,3-dihydro-1H-1,5-benzodiazepin-2-ones; potential imaging agents of the metabotropic glutamate 2 receptor” (Medchemcomm, 2013).

Data set [1] deals with Metabotropic glutamate receptor 2 (Homo sapiens, UniProt Q14416). The data set can be described thus: Non-competitive antagonist activity at human recombinant mGluR2 expressed in Chem-1 cell membrane assessed as inhibition of L-glutamate-induced [35S]GTPgammaS binding after 30 mins by liquid scintillation counting analysis. It counts as functional, cell membranes.
A short description of data set [2]: Lipophilicity, log P of the compound by HPLC analysis. The format is physicochemical.
In another data set the target is Albumin (Homo sapiens, UniProt P02768). Description: Protein binding in human serum albumin by chromatography. It counts as ADME. The following applies: read-out: PPB (converted).

Usually IC50 stands for the concentration that inhibits the measured activity by half. Broadly, the logP is a log measure of how a compound divides between an organic and an aqueous phase. Read a low logP as a more hydrophilic compound.

Chain of Metabotropic glutamate receptor 2 (Q14416 whole entry): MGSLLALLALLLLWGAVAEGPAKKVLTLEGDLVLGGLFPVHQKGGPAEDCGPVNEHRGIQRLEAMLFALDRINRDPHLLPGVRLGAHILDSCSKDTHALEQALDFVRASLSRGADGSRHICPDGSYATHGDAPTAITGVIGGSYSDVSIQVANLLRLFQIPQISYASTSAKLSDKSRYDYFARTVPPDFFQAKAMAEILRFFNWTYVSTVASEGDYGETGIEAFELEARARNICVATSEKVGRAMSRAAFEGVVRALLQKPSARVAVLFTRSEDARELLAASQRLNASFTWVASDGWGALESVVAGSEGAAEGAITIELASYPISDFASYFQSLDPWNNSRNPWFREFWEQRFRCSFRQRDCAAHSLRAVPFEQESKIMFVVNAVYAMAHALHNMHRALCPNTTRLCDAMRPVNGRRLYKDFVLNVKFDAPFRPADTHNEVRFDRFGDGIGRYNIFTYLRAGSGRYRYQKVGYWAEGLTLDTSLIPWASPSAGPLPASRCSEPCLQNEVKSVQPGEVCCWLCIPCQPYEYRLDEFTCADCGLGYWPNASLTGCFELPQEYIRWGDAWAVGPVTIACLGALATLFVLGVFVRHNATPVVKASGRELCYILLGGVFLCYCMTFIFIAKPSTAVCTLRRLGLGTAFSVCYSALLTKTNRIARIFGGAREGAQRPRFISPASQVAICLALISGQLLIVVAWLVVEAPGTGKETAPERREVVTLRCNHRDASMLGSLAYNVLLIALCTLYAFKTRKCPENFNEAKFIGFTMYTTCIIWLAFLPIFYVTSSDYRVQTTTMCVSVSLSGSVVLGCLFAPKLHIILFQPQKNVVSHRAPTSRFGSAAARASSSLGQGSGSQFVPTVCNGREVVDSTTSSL
Chain of Albumin (P02768 whole entry): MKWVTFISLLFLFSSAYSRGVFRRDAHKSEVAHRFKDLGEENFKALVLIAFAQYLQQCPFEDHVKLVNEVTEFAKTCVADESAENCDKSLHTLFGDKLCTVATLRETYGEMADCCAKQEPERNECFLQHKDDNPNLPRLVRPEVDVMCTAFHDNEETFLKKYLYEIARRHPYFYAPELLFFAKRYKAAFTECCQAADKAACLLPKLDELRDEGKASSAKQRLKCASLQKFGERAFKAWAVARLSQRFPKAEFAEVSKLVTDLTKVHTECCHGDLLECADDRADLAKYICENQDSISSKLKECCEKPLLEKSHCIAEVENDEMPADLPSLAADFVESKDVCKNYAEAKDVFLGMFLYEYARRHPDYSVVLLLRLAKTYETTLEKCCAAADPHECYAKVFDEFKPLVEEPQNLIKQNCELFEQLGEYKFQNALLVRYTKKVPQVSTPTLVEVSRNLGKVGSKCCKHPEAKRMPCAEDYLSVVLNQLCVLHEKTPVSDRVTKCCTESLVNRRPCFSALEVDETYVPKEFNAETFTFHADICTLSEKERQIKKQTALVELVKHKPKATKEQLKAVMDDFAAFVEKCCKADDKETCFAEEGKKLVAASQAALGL

As for `Clc1cccc(Cl)c1/C(=C/n1cncn1)OC1CCCCCC1`, the concentration for half-maximal inhibition (IC50) in data set [1] was 0.533 µM.

Regarding `O=C1CC(c2cccc(-n3ccnc3)c2)=Nc2ccc(I)cc2N1`, the logP in data set [2] is 4.6. The fraction unbound at Albumin was 0.0508. Further, the concentration for half-maximal inhibition (IC50) in data set [1] came out at 0.089 µM.

Regarding `O=C1CC(c2cccc(-n3ccnc3)c2)=Nc2ccc(-c3cccc(I)c3)cc2N1`, in data set [2], the logP came out at 5.73. On Albumin, the fraction unbound is 0.0154. Further, the 50% inhibitory concentration (IC50) in data set [1] was found to be 0.132 µM.

With `O=C1CC(c2cccc(-n3ccnc3)c2)=Nc2ccc(-c3ccc(I)cc3)cc2N1`, the log partition coefficient (logP) in data set [2] worked out at 5.77. Moreover, the fraction unbound on Albumin was 0.0133. In addition, the IC50 in data set [1] turned out to be 0.133 µM.

Consider `COc1cc2c(cc1C(F)(F)F)NC(=O)CC(c1cccc(-n3ccnc3)c1)=N2`, for which the logP in data set [2] came to 4.67. Moreover, at Albumin, the fraction unbound is 0.0759. The IC50 in data set [1] was 0.091 µM.

Take `O=C1CC(c2cccc(-n3ccnc3)c2)=Nc2cc(OCCCF)c(C(F)(F)F)cc2N1`: in data set [2], the logP stood at 5.06. For the same molecule, the fraction unbound at Albumin was 0.0488. In addition, the IC50 in data set [1] came out at 0.1 µM.

`COc1cc2c(cc1-c1ccc(I)cc1)NC(=O)CC(c1cccc(-n3ccnc3)c1)=N2` showed a log partition coefficient (logP) in data set [2] of 5.72. Also, at Albumin, the fraction unbound is 0.0168. Moreover, the half-inhibitory concentration (IC50) in data set [1] worked out at 0.089 µM.
